The source of these data is patent US20260132132A1, “3A,4,5,6-TETRAHYDRO-1 H-PYRAZOLO[3,4-C]PYRIDIN-7(7AH)-ONE DERIVATIVES AS FACTOR XIIA INHIBITORS” (KALVISTA PHARMACEUTICALS LIMITED, priority 2022, published 2026).

This experiment has as its target T1, Human Factor XIIa (hFXIIa) (Homo sapiens, UniProt P00748).
T1 construct: purchased Enzyme Research Laboratories
T1 sequence (P00748 373-615 limits assumed): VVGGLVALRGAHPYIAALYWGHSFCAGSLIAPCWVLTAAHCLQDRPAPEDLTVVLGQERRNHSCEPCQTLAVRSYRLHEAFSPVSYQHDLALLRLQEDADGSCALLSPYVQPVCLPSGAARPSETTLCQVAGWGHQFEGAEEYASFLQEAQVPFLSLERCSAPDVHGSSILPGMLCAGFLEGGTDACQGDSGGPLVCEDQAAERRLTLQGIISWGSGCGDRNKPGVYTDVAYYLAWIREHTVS
T1 sequence (P00748 20-372 partner limits assumed): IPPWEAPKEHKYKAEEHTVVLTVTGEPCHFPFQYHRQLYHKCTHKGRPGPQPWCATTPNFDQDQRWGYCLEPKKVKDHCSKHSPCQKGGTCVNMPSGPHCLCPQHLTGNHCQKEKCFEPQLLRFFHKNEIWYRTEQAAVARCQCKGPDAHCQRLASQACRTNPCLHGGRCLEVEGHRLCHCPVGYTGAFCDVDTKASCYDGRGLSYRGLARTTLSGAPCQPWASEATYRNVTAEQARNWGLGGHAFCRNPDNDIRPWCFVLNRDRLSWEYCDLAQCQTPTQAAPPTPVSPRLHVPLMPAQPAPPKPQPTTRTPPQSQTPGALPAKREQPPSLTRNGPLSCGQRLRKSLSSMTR
Kind of experiment: Determination of Human Factor XIIa (hFXIIa) inhibition, fluorogenic substrate IC50 assay. In kind it is biochemical. Conditions: fluorogenic substrate H-DPro-Phe-Arg-AFC at Km, 25° C., read-out: Human FXIIa IC50. The protocol:
Determination of Human Factor XIIa (hFXIIa) inhibition
The Km for the cleavage of the substrate by hFXIIa was determined by standard transformation of the Michaelis-Menten equation, with subsequent inhibition assays performed at substrate Km concentration.
Usually IC50 stands for the concentration that gives 50% inhibition. On to `Cc1ccc(N2CCc3c(C(=O)NCC4CC4)nn(-c4cccc(Cl)c4)c3C2=O)cc1C(=O)N(C)C` [Example 1244, 1-(3-chlorophenyl)-N-(cyclopropylmethyl)-6-(3-(dimethylcarbamoyl)-4-methylphenyl)-7-oxo-4,5,6,7-tetrahydro-1H-pyrazolo[3,4-c]pyridine-3-carboxamide], for which the half-maximal inhibitory concentration (IC50) was in the range of 3000 to 10000 nM.

Take `CN1CCc2ccc(N3CCc4c(C(=O)NC[C@H]5COCCO5)nn(-c5cccc(Cl)c5)c4C3=O)cc2C1=O` [Example 1246, (S)-N-((1,4-dioxan-2-yl)methyl)-1-(3-chlorophenyl)-6-(2-methyl-1-oxo-1,2,3,4-tetrahydroisoquinolin-7-yl)-7-oxo-4,5,6,7-tetrahydro-1H-pyrazolo[3,4-c]pyridine-3-carboxamide]: the IC50 was in the range of 300 to 1000 nM.

`CN1CCc2ccc(N3CCc4c(C(=O)NC[C@@H]5COCCO5)nn(-c5cccc(Cl)c5)c4C3=O)cc2C1=O` [Example 1249, (R)-N-((1,4-dioxan-2-yl)methyl)-1-(3-chlorophenyl)-6-(2-methyl-1-oxo-1,2,3,4-tetrahydroisoquinolin-7-yl)-7-oxo-4,5,6,7-tetrahydro-1H-pyrazolo[3,4-c]pyridine-3-carboxamide]: the IC50 is 300 to 1000 nM.

Consider `CN1CCc2ccc(N3CCc4c(C(=O)NC5COCC5CO)nn(-c5cccc(Cl)c5)c4C3=O)cc2C1=O` (stereo not drawn) [Example 1251, 1-(3-chlorophenyl)-N-(4-(hydroxymethyl)tetrahydrofuran-3-yl)-6-(2-methyl-1-oxo-1,2,3,4-tetrahydroisoquinolin-7-yl)-7-oxo-4,5,6,7-tetrahydro-1H-pyrazolo[3,4-c]pyridine-3-carboxamide], for which the half-inhibitory concentration (IC50) fell in the range of 300 to 1000 nM.

`Cc1cc(CNC(=O)c2nn(-c3cccc(Cl)c3)c3c2CCN(c2ccc4c(c2)C(=O)N(CCO)CC4)C3=O)n[nH]1` [Example 1255, 1-(3-chlorophenyl)-6-(2-(2-hydroxyethyl)-1-oxo-1,2,3,4-tetrahydroisoquinolin-7-yl)-N-((5-methyl-1H-pyrazol-3-yl)methyl)-7-oxo-4,5,6,7-tetrahydro-1H-pyrazolo[3,4-c]pyridine-3-carboxamide]: the concentration for half-maximal inhibition (IC50) lay within 100 to 300 nM.

On to `O=C(NCc1cc(C2CC2)[nH]n1)c1nn(-c2cccc(Cl)c2)c2c1CCN(c1ccc3c(c1)C(=O)N(CCO)CC3)C2=O` [Example 1259, 1-(3-chlorophenyl)-N-((5-cyclopropyl-1H-pyrazol-3-yl)methyl)-6-(2-(2-hydroxyethyl)-1-oxo-1,2,3,4-tetrahydroisoquinolin-7-yl)-7-oxo-4,5,6,7-tetrahydro-1H-pyrazolo[3,4-c]pyridine-3-carboxamide], for which the concentration for half-maximal inhibition (IC50) is 100 to 300 nM.

Take `O=C(NCC1CC1)c1nn(-c2cccc(Cl)c2)c2c1CCN(c1cccc(C(=O)N3CCCC3)c1)C2=O` [Example 1263, 1-(3-chlorophenyl)-N-(cyclopropylmethyl)-7-oxo-6-(3-(pyrrolidine-1-carbonyl)phenyl)-4,5,6,7-tetrahydro-1H-pyrazolo[3,4-c]pyridine-3-carboxamide]: the IC50 lay within 10000 to 40000 nM.

Consider `Cc1n[nH]c(C)c1CNC(=O)c1nn(-c2cccc(Cl)c2)c2c1CCN(c1ccc3c(c1)C(=O)N(C)CC3)C2=O` [Example 1268, 1-(3-chlorophenyl)-N-((3,5-dimethyl-1H-pyrazol-4-yl)methyl)-6-(2-methyl-1-oxo-1,2,3,4-tetrahydroisoquinolin-7-yl)-7-oxo-4,5,6,7-tetrahydro-1H-pyrazolo[3,4-c]pyridine-3-carboxamide], for which the IC50 was in the range of 300 to 1000 nM.

With `CC(=O)N(C)c1cccc(N2CCc3c(C(=O)NCC4CC4)nn(-c4cccc(Cl)c4)c3C2=O)c1` [Example 1269, 1-(3-chlorophenyl)-N-(cyclopropylmethyl)-6-(3-(N-methylacetamido)phenyl)-7-oxo-4,5,6,7-tetrahydro-1H-pyrazolo[3,4-c]pyridine-3-carboxamide], the 50% inhibitory concentration (IC50) fell in the range of 10000 to 40000 nM.
